Measured values published in the NIST ThermoML archive (doi:10.1016/j.jct.2010.12.022).
Where “and” joins values, the source holds several entries; their conditions need not be identical. Equal values may be shown once.

Conditions: Crystal, Calculated from knudsen effusion weight loss

c1ccc(-c2cc(-c3ccccc3)cc(-c3ccccc3)c2)cc1 [1,3,5-triphenylbenzene]
Conditions	vapor or sublimation pressure
404.34 K	9.95e-05 kPa
405.34 K	0.0001076 kPa
407.27 K	0.000136 kPa
408.34 K	0.0001462 kPa
408.35 K	0.0001487 kPa
410.36 K	0.0001809 kPa
412.35 K	0.0002238 kPa and 0.0002202 kPa
413.28 K	0.000252 kPa
414.37 K	0.0002718 kPa
416.35 K	0.0003305 kPa
416.37 K	0.0003361 kPa
418.28 K	0.000412 kPa
418.39 K	0.000405 kPa
420.36 K	0.0004929 kPa
420.39 K	0.0005004 kPa
422.41 K	0.000601 kPa
423.28 K	0.000671 kPa
424.37 K	0.000729 kPa
424.42 K	0.0007385 kPa
426.43 K	0.0008947 kPa
428.29 K	0.001087 kPa
428.38 K	0.00108 kPa
428.45 K	0.001096 kPa

O=C1c2ccccc2-c2cccc3cccc1c23 [7H-benz[de]anthracen-7-one]
Conditions	vapor or sublimation pressure [kPa]
388.22 K	0.0001308
389.22 K	0.0001419
390.22 K	0.0001594
391.22 K	0.0001742
392.19 K	0.0001926
392.22 K	0.0001937
393.23 K	0.0002126
394.2 K	0.000232
394.23 K	0.0002331
395.24 K	0.0002574
396.2 K	0.0002786
396.23 K	0.0002797
397.24 K	0.0003067
398.2 K	0.0003364
398.23 K	0.0003376
399.24 K	0.0003702
400.21 K	0.0004108
400.24 K	0.000412
401.24 K	0.0004472
402.21 K	0.0004911
402.24 K	0.0004922
403.25 K	0.000532
404.21 K	0.0005813
406.21 K	0.0007014
408.22 K	0.0008383

c1ccc2cc3ccccc3cc2c1 [anthracene]
Conditions	vapor or sublimation pressure
323.31 K	2.21e-05 kPa
327.16 K	3.51e-05 kPa
331.27 K	5.47e-05 kPa
335.32 K	8.42e-05 kPa
339.31 K	0.00013 kPa
343.32 K	0.000197 kPa
347.26 K	0.000281 kPa
347.33 K	0.000289 kPa
351.27 K	0.00043 kPa
351.33 K	0.000426 kPa and 0.000424 kPa
355.26 K	0.000604 kPa
355.33 K	0.000634 kPa
357.34 K	0.000783 kPa
359.26 K	0.000876 kPa
359.33 K	0.000945 kPa
363.34 K	0.001374 kPa
367.27 K	0.001898 kPa
367.35 K	0.001967 kPa
371.35 K	0.002859 kPa
375.36 K	0.004145 kPa
